# Where two headings read alike, the source gives them in different places. Numbered stars: 1 amine (or outer) side, 2 acyl side, 3 side chain; on linkers, the order of the positions; unused ones are H or OH. Bridge positions count the residues as written; N and C are the ends. Square brackets hold non-standard residues; d marks the D form. Peptide text beside a SMILES is read from it. X2 = O=C(O)CCCCCCCCCCCCCCCCCCC(=O)N[C@@H](CCCCNC(=O)CCOCCOCCNC(=O)CCOCCOCCNC(=O)CCC(=O)N(CCNC(=O)C[*:1])CCNC(=O)C[*:2])C(=O)O; Aib = CC(C)(N)C(=O)O
# How the values were obtained:
# [1] = biological target: T1, human GIPR (Homo sapiens, UniProt P48546); experiment: In vitro receptor activation reporter assay (CRE-Luc), HEK293-GIPR-CRE; type: cell-based
# T1 construct: expressed in transfected cells
# T1 sequence (P48546 22-466): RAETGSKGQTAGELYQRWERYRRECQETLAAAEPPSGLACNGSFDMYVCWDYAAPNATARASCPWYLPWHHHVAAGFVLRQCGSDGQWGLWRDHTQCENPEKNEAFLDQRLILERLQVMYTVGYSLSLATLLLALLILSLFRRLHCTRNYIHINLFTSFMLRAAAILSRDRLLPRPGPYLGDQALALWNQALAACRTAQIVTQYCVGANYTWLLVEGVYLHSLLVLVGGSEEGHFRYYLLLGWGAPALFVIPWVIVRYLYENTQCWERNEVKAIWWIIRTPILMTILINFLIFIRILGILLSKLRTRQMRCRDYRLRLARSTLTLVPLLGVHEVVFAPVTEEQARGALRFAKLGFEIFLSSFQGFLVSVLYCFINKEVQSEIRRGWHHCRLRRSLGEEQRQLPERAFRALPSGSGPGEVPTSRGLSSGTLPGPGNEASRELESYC
# Excerpt: HEK293 cells were infected with lentivirus encoding firefly luciferase gene under the control of cAMP responsive element (CRE) promoter (Qiagen, The Netherlands) and then were selected using 1 g mL^−1 puromycin (Life Technologies, Carlsbad) for 1 week. The surviving cells (referred to as CRE-HEK293) were expanded and then transfected with a G418 selective mammalian expression plasmid encoding human GLP-1R or GIPR. In brief, GLP-1R or GIPR plasmid was transfected into CRE-HEK293 cells using Lipofectamine 2000 and selected with 400 g mL^−1 Geneticin (Life Technologies, Carlsbad, CA). Single colony stable cell line overexpressing CRE-luciferase and GLP-1R or GIPR (HEK293-GLP-1R-CRE or HEK293-GIPR-CRE) was then established for in vitro activity assay.
# (§1) The EC50 of each peptide was determined using GraphPad Prism 6 software (GraphPad, San Diego, CA).
# [2] = biological target: T2, human GLP-1R (Homo sapiens, UniProt P43220); experiment: In vitro receptor activation reporter assay (CRE-Luc), HEK293-GLP-1R-CRE; type: cell-based
# T2 construct: expressed in transfected cells
# Description: as §1
# HEK293 cells were infected with lentivirus encoding firefly luciferase gene under the control of cAMP responsive element (CRE) promoter (Qiagen, The Netherlands) and then were selected using 1 g/mL puromycin (Life Technologies, Carlsbad) for 1 week. The surviving cells (referred to as CRE-HEK293) were expanded and then transfected with a G418 selective mammalian expression plasmid encoding human GLP-1R. In brief, GLP-1R plasmid was transfected into CRE-HEK293 cells using Lipofectamine 2000 and selected with 400 g/mL Geneticin (Life Technologies, Carlsbad, CA). Single colony stable cell line overexpressing CRE-luciferase and GLP1R was then established for in vitro activity assay.
# [3] = Table 9, read-out: EC50 [nM] GIPR
# [4] = unnumbered table (Table 10), average of runs, read-out: GIPR (nM) [EC50] average
# [5] = unnumbered table (Table 10), run 02/19, read-out: GIPR (nM) [EC50] 02/19
# [6] = unnumbered table (Table 10), run 03/26, read-out: GIPR (nM) [EC50] 03/26
# [7] = Table 9, read-out: EC50 [nM] GLP1R
# [8] = unnumbered table (Table 10), average of runs, read-out: GLP1R (nM) [EC50] average
# [9] = unnumbered table (Table 10), run 02/19, read-out: GLP1R (nM) [EC50] 02/19
# [10] = unnumbered table (Table 10), run 3/25, read-out: GLP1R (nM) [EC50] 3/25
# [11] = unnumbered table (Table 10), run 03/26, read-out: GLP1R (nM) [EC50] 03/26
# T2 sequence (P43220 24-463): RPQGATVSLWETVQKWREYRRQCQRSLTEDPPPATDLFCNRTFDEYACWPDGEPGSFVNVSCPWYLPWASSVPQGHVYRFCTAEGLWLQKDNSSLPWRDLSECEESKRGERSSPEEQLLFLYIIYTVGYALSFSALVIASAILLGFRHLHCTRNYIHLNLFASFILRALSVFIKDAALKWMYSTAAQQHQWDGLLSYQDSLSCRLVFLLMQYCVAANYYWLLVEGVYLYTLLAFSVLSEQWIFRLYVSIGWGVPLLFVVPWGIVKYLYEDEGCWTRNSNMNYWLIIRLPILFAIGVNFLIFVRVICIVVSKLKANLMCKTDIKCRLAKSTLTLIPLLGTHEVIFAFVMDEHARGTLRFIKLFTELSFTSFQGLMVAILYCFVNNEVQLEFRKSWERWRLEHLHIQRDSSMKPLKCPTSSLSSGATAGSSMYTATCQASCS
SMILES,"EC50 [1, 3]","EC50 [1, 4]","EC50 [1, 5]","EC50 [1, 6]","EC50 [2, 7]","EC50 [2, 8]","EC50 [2, 9]","EC50 [2, 10]","EC50 [2, 11]",further results
"CC[C@H](C)[C@H](NC(=O)[C@H](CO)NC(=O)[C@H](Cc1ccc(O)cc1)NC(=O)[C@H](CC(=O)O)NC(=O)[C@H](CO)NC(=O)[C@@H](NC(=O)[C@H](Cc1ccccc1)NC(=O)[C@@H](NC(=O)CNC(=O)[C@H](CCC(=O)O)NC(=O)C(C)(C)NC(=O)[C@@H](N)Cc1ccc(O)cc1)[C@@H](C)O)[C@@H](C)O)C(=O)N[C@@H](Cc1ccc(O)cc1)C(=O)N[C@@H](CC(C)C)C(=O)N[C@@H](CC(=O)O)C(=O)N[C@@H](CCCCN)C(=O)N[C@H]1CSCC(=O)NCCN(C(=O)CCC(=O)NCCOCCOCCC(=O)NCCOCCOCCC(=O)NCCCC[C@H](NC(=O)CCCCCCCCCCCCCCCCCCC(=O)O)C(=O)O)CCNC(=O)CSC[C@@H](C(=O)N[C@@H](Cc2c[nH]c3ccccc23)C(=O)N[C@@H](CC(C)C)C(=O)N[C@@H](CC(C)C)C(=O)N[C@@H](C)C(=O)NCC(=O)NCC(=O)N2CCC[C@H]2C(=O)N[C@@H](CO)C(=O)N[C@@H](CO)C(=O)NCC(=O)N[C@@H](C)C(=O)N2CCC[C@H]2C(=O)N2CCC[C@H]2C(=O)N2CCC[C@H]2C(=O)N[C@@H](CO)C(N)=O)NC(=O)[C@H](C(C)C)NC(=O)[C@H](Cc2ccccc2)NC(=O)[C@H](CCC(=O)O)NC(=O)C(C)(C)NC(=O)[C@H](C)NC(=O)[C@H](C)NC1=O [C(17-24) - C20L5A, YAibEGT-FTSDY-SIYLD-KXAAAib-EFVXW-LLAGG-PSSGA-PPPS-NH2 (where each X is C)]",0.05 nM,0.03 nM,0.04 nM,0.03 nM,0.11 nM,0.09 nM,0.07 nM,0.1 nM,0.09 nM,"EC50 ([1]; unnumbered table (Table 10), run 03/25, read-out: GIPR (nM) [EC50] 03/25): 0.02 nM"
"CC[C@H](C)[C@H](NC(=O)[C@H](CC(C)C)NC(=O)[C@H](Cc1c[nH]c2ccccc12)NC(=O)[C@H](CC(N)=O)NC(=O)[C@@H](NC(=O)[C@H](Cc1ccccc1)NC(=O)[C@@H]1CSCC(=O)NCCN(C(=O)CCC(=O)NCCOCCOCCC(=O)NCCOCCOCCC(=O)NCCCC[C@H](NC(=O)CCCCCCCCCCCCCCCCCCC(=O)O)C(=O)O)CCNC(=O)CSC[C@H](NC(=O)[C@H](Cc2ccc(O)cc2)NC(=O)[C@@H](NC(=O)[C@H](CO)NC(=O)[C@H](Cc2ccc(O)cc2)NC(=O)[C@H](CC(=O)O)NC(=O)[C@H](CO)NC(=O)[C@@H](NC(=O)[C@H](Cc2ccc(O)cc2)NC(=O)[C@@H](NC(=O)CNC(=O)[C@H](CCC(=O)O)NC(=O)C(C)(C)NC(=O)[C@@H](N)Cc2ccc(O)cc2)[C@@H](C)O)[C@@H](C)O)[C@@H](C)CC)C(=O)N[C@@H](CC(=O)O)C(=O)N[C@@H](CCCCN)C(=O)N[C@@H](CCC(N)=O)C(=O)N[C@@H](C)C(=O)N[C@@H](C)C(=O)NC(C)(C)C(=O)N1)C(C)C)C(=O)N[C@@H](C)C(=O)NCC(=O)NCC(=O)N1CCC[C@H]1C(=O)N[C@@H](CO)C(=O)N[C@@H](CO)C(=O)NCC(=O)N[C@@H](C)C(=O)N1CCC[C@H]1C(=O)N1CCC[C@H]1C(=O)N1CCC[C@H]1C(=O)N[C@@H](CO)C(N)=O [6Y, 271, C(14-21) - C20L5A, YAibEGT-YTSDY-SIYXD-KQAAAib-XFVNW-LIAGG-PSSGA-PPPS-NH2 (where each X is C)] (H-Y[Aib]EGTYTSDYSIYCDKQAA[Aib]CFVNWLIAGGPSSGAPPPS-NH2; linker 14-21 via X2)",–,–,–,–,–,–,–,–,–,"EC50 ([1]; GIPR (nM) [EC50] 02/19, unnumbered table (Table 10), run 02/19): 0.5 nM; EC50 ([2]; GLP1R (nM) [EC50] 02/19, unnumbered table (Table 10), run 02/19): 0.04 nM; EC50 ([2]; GLP1R (nM) [EC50] 3/25, unnumbered table (Table 10), run 3/25): 0.07 nM; EC50 ([2]; GLP1R (nM) [EC50] 03/26, unnumbered table (Table 10), run 03/26): 0.07 nM; EC50 ([2]; GLP1R (nM) [EC50] average, unnumbered table (Table 10), average of runs): 0.06 nM"
"CC[C@H](C)[C@H](NC(=O)[C@H](CC(C)C)NC(=O)[C@H](Cc1c[nH]c2ccccc12)NC(=O)[C@@H]1CSCC(=O)NCCN(C(=O)CCC(=O)NCCOCCOCCC(=O)NCCOCCOCCC(=O)NCCCC[C@H](NC(=O)CCCCCCCCCCCCCCCCCCC(=O)O)C(=O)O)CCNC(=O)CSC[C@H](NC(=O)[C@H](CCCCN)NC(=O)[C@H](CC(=O)O)NC(=O)[C@H](CC(C)C)NC(=O)[C@H](Cc2ccc(O)cc2)NC(=O)[C@@H](NC(=O)[C@H](CO)NC(=O)[C@H](Cc2ccc(O)cc2)NC(=O)[C@H](CC(=O)O)NC(=O)[C@H](CC(N)=O)NC(=O)[C@@H](NC(=O)[C@H](Cc2ccc(O)cc2)NC(=O)[C@@H](NC(=O)CNC(=O)[C@H](CCC(=O)O)NC(=O)C(C)(C)NC(=O)[C@@H](N)Cc2ccc(O)cc2)[C@@H](C)O)[C@@H](C)O)[C@@H](C)CC)C(=O)N[C@@H](C)C(=O)N[C@@H](C)C(=O)NC(C)(C)C(=O)N[C@@H](CCC(=O)O)C(=O)N[C@@H](Cc2ccccc2)C(=O)N[C@@H](C(C)C)C(=O)N1)C(=O)N[C@@H](C)C(=O)NCC(=O)NCC(=O)N1CCC[C@H]1C(=O)N[C@@H](CO)C(=O)N[C@@H](CO)C(=O)NCC(=O)N[C@@H](C)C(=O)N1CCC[C@H]1C(=O)N1CCC[C@H]1C(=O)N1CCC[C@H]1C(=O)N[C@@H](CO)C(N)=O [6Y, 8N, 27I, C(17-24) - C20L5A, YAibEGT-YTNDY-SIYLD-KXAAAib-EFVXW-LIAGG-PSSGA-PPPS-NH2 (where each X is C)] (H-Y[Aib]EGTYTNDYSIYLDKCAA[Aib]EFVCWLIAGGPSSGAPPPS-NH2; linker 17-24 via X2)",–,2.88 nM,2.48 nM,3.29 nM,–,0.08 nM,0.06 nM,0.11 nM,0.07 nM,–
"CC[C@H](C)[C@H](NC(=O)[C@H](CC(C)C)NC(=O)[C@H](Cc1c[nH]c2ccccc12)NC(=O)[C@H](CC(N)=O)NC(=O)[C@@H](NC(=O)[C@H](Cc1ccccc1)NC(=O)[C@@H]1CSCC(=O)NCCN(C(=O)CCC(=O)NCCOCCOCCC(=O)NCCOCCOCCC(=O)NCCCC[C@H](NC(=O)CCCCCCCCCCCCCCCCCCC(=O)O)C(=O)O)CCNC(=O)CSC[C@H](NC(=O)[C@H](Cc2ccc(O)cc2)NC(=O)[C@@H](NC(=O)[C@H](CO)NC(=O)[C@@H](NC(=O)[C@H](CC(=O)O)NC(=O)[C@H](CO)NC(=O)[C@@H](NC(=O)[C@H](Cc2ccccc2)NC(=O)[C@@H](NC(=O)CNC(=O)[C@H](CCC(=O)O)NC(=O)C(C)(C)NC(=O)[C@@H](N)Cc2ccc(O)cc2)[C@@H](C)O)[C@@H](C)CC)C(C)C)[C@@H](C)CC)C(=O)N[C@@H](CC(=O)O)C(=O)N[C@@H](CCCCN)C(=O)N[C@@H](CCC(N)=O)C(=O)N[C@@H](C)C(=O)N[C@@H](C)C(=O)NC(C)(C)C(=O)N1)C(C)C)C(=O)N[C@@H](C)C(=O)NCC(=O)NCC(=O)N1CCC[C@H]1C(=O)N[C@@H](CO)C(=O)N[C@@H](CO)C(=O)NCC(=O)N[C@@H](C)C(=O)N1CCC[C@H]1C(=O)N1CCC[C@H]1C(=O)N1CCC[C@H]1C(=O)N[C@@H](CO)C(N)=O [7I, 10V, 27I, C(14-21) - C20L5A, YAibEGT-FISDV-SIYXD-KQAAAib-XFVNW-LIAGG-PSSGA-PPPS-NH2 (where each X is C)] (H-Y[Aib]EGTFISDVSIYCDKQAA[Aib]CFVNWLIAGGPSSGAPPPS-NH2; linker 14-21 via X2)",–,–,–,–,–,–,–,–,–,"EC50 ([1]; Table 8, read-out: EC50 [nM] GIPR): 303 nM; EC50 ([2]; Table 8, read-out: EC50 [nM] GLP1R): ~13700 nM"
"CC[C@H](C)[C@H](NC(=O)[C@H](CO)NC(=O)[C@H](Cc1ccc(O)cc1)NC(=O)[C@H](CC(=O)O)NC(=O)[C@H](CO)NC(=O)[C@@H](NC(=O)[C@H](Cc1ccccc1)NC(=O)[C@@H](NC(=O)CNC(=O)[C@H](CCC(=O)O)NC(=O)C(C)(C)NC(=O)[C@@H](N)Cc1ccc(O)cc1)[C@@H](C)O)[C@@H](C)O)C(=O)N[C@@H](Cc1ccc(O)cc1)C(=O)N[C@@H](CC(C)C)C(=O)N[C@@H](CC(=O)O)C(=O)N[C@@H](CCCCN)C(=O)N[C@H]1CSCC(=O)NCCN(C(=O)CCC(=O)NCCOCCOCCC(=O)NCCOCCOCCC(=O)NCCCC[C@H](NC(=O)CCCCCCCCCCCCCCCCC(=O)O)C(=O)O)CCNC(=O)CSC[C@@H](C(=O)N[C@@H](Cc2c[nH]c3ccccc23)C(=O)N[C@@H](CC(C)C)C(=O)N[C@@H](CC(C)C)C(=O)N[C@@H](C)C(=O)NCC(=O)NCC(=O)N2CCC[C@H]2C(=O)N[C@@H](CO)C(=O)N[C@@H](CO)C(=O)NCC(=O)N[C@@H](C)C(=O)N2CCC[C@H]2C(=O)N2CCC[C@H]2C(=O)N2CCC[C@H]2C(=O)N[C@@H](CO)C(N)=O)NC(=O)[C@H](C(C)C)NC(=O)[C@H](Cc2ccccc2)NC(=O)[C@H](CCC(=O)O)NC(=O)C(C)(C)NC(=O)[C@H](C)NC(=O)[C@H](C)NC1=O [C(17-24) - L5A, YAibEGT-FTSDY-SIYLD-KXAAAib-EFVXW-LLAGG-PSSGA-PPPS-NH2 (where each X is C)]",0.05 nM,–,–,–,0.11 nM,–,–,–,–,–

# — US20250320252A1 (The Scripps Research Institute, priority 2021, published 2025)
